Laboratory results: patent US11000033B2, “Ketone or oxime compound, and herbicide” (NISSAN CHEMICAL CORPORATION, priority 2014, dated 2021)

Experiments:
Format in all cases: in vivo
[1] = test system: Echinochloa crus-galli var. crus-galli; test: Test Example 3: herbicidal effect by foliage application, Wagner pot (symbol H); settings: application herbicide amount 320 g/ha
Method: (§1) Herbicidal Effect Test by Foliage Application
(§2) After alluvial soil was placed into 1/10000 are of Wagner pot, water was poured and mixed to form a submerged condition having a water depth of 0.1 cm to 0.5 cm. Seeds of Echinochloa crus-galli var. crus-galli, Leptochloa chinensis, Cyperus difformis, and rice were sowed and the pot was placed in the greenhouse of 25° C. to 30° C. to grow the plants. After the plants were grown for 14 days, the emulsion agent of the compound of the present invention prepared in accordance with Formulation Example 2 was diluted with water so as to be a predetermined herbicide amount and the diluted emulsion agent was uniformly applied to a foliage part with a small-size spray. 3 weeks later from the herbicide application, the effect to each plant was investigated in accordance with the criteria of Test Example 1.

Leptochloa chinensis = test: Test Example 3: herbicidal effect by foliage application, Wagner pot (symbol D); settings: application herbicide amount 320 g/ha
Method: as §1, §2

Cyperus difformis = test: Test Example 3: herbicidal effect by foliage application, Wagner pot (symbol E); settings: application herbicide amount 320 g/ha
Method: as §1, §2

[2] = test system: directly sowed rice plant; test: Test Example 3: effect on crop by foliage application, Wagner pot (symbol b); settings: application herbicide amount 320 g/ha
Method: as §1
After alluvial soil was placed into 1/10000 are of Wagner pot, water was poured and mixed to form a submerged condition having a water depth of 0.1 cm to 0.5 cm. Seeds of Echinochloa crus-galli var. crus-galli, Leptochloa chinensis, Cyperus difformis, and rice were sowed and the pot was placed in the greenhouse of 25° C. to 30° C. to grow the plants.

Digitaria ciliaris = test: Test Example 5: herbicidal effect by foliage application, plastic box (symbol F); settings: 320 g/ha, 3 weeks after application
Source text: as §1
(§3) Sterilized diluvial soil was placed in a plastic box having a length of 21 cm, a width of 13 cm, and a depth of 7 cm. Each of the seeds of Digitaria ciliaris, Setaria viridis, Echinochloa crus-galli var. crus-galli, Avena fatua, Alopecurus myosuroides, Lolium multiflorum Lam., Apera spica-venti, Abutilon theophrasti, Amaranthus retroflexus, Chenopodium album, Stellaria media, Galium spurium, Veronica persica, corn, soybean, rice plant, wheat, beet, and rapeseed was sowed in a spot-like manner and was covered with the soil of a thickness of about 1.5 cm. Thereafter, the plants were grown in the greenhouse of 25° C. to 30° C. After the plants were grown for 14 days, the emulsion agent of the compound of the present invention prepared in accordance with Formulation Example 2 was diluted with water so as to be a predetermined herbicide amount and the diluted emulsion agent was uniformly applied to a foliage part with a small-size spray. 3 weeks later from the herbicide application, the effect to each plant was investigated in accordance with the criteria of Test Example 1.

Setaria viridis = test: Test Example 5: herbicidal effect by foliage application, plastic box (symbol G); settings: 320 g/ha, 3 weeks after application
Source text: as §1, §3

[3] = test system: Echinochloa crus-galli var. crus-galli; test: Test Example 5: herbicidal effect by foliage application, plastic box (symbol H); settings: 320 g/ha, 3 weeks after application
Source text: as §1, §3

Avena fatua = test: Test Example 5: herbicidal effect by foliage application, plastic box (symbol I); settings: 320 g/ha, 3 weeks after application
Source text: as §1, §3

Alopecurus myosuroides = test: Test Example 5: herbicidal effect by foliage application, plastic box (symbol J); settings: 320 g/ha, 3 weeks after application
Source text: as §1, §3

Apera spica-venti = test: Test Example 5: herbicidal effect by foliage application, plastic box (symbol L); settings: 320 g/ha, 3 weeks after application
Source text: as §1, §3

Abutilon theophrasti = test: Test Example 5: herbicidal effect by foliage application, plastic box (symbol M); settings: 320 g/ha, 3 weeks after application
Source text: as §1, §3

Amaranthus retroflexus = test: Test Example 5: herbicidal effect by foliage application, plastic box (symbol N); settings: 320 g/ha, 3 weeks after application
Source text: as §1, §3

Chenopodium album = test: Test Example 5: herbicidal effect by foliage application, plastic box (symbol O); settings: 320 g/ha, 3 weeks after application
Source text: as §1, §3

Stellaria media = test: Test Example 5: herbicidal effect by foliage application, plastic box (symbol P); settings: 320 g/ha, 3 weeks after application
Source text: as §1, §3

Veronica persica = test: Test Example 5: herbicidal effect by foliage application, plastic box (symbol R); settings: 320 g/ha, 3 weeks after application
Source text: as §1, §3

corn = test: Test Example 5: effect on crop by foliage application, plastic box (symbol c); settings: 320 g/ha, 3 weeks after application
Source text: as §1
(§4) Sterilized diluvial soil was placed in a plastic box having a length of 21 cm, a width of 13 cm, and a depth of 7 cm. Each of the seeds of Digitaria ciliaris, Setaria viridis, Echinochloa crus-galli var. crus-galli, Avena fatua, Alopecurus myosuroides, Lolium multiflorum Lam., Apera spica-venti, Abutilon theophrasti, Amaranthus retroflexus, Chenopodium album, Stellaria media, Galium spurium, Veronica persica, corn, soybean, rice plant, wheat, beet, and rapeseed was sowed in a spot-like manner and was covered with the soil of a thickness of about 1.5 cm. Thereafter, the plants were grown in the greenhouse of 25° C. to 30° C.

soybean = test: Test Example 5: effect on crop by foliage application, plastic box (symbol d); settings: 320 g/ha, 3 weeks after application
Source text: as §1, §4

rice plant = test: Test Example 5: effect on crop by foliage application, plastic box (symbol b); settings: 320 g/ha, 3 weeks after application
Source text: as §1, §4

wheat = test: Test Example 5: effect on crop by foliage application, plastic box (symbol e); settings: 320 g/ha, 3 weeks after application
Source text: as §1, §4

beet = test: Test Example 5: effect on crop by foliage application, plastic box (symbol f); settings: 320 g/ha, 3 weeks after application
Source text: as §1, §4

rapeseed = test: Test Example 5: effect on crop by foliage application, plastic box (symbol g); settings: 320 g/ha, 3 weeks after application
Source text: as §1, §4

[4] = test system: Echinochloa oryzacola Vasing.; test: Test Example 1: herbicidal activity, application before weed generation in submerged conditions (symbol A); settings: application herbicide amount 320 g/ha
Source text: (§5) Herbicidal Activity Test by Application Before Weed Generation in Submerged Conditions
(§6) After alluvial soil was placed into 1/10000 are of Wagner pot, water was poured and mixed to form a submerged condition having a water depth of 4 cm. Seeds of Echinochloa oryzacola Vasing., Scirpus juncoides, and Monochoria vaginalis were sowed in a mixed manner in the above pot and thereafter 2.5 leaf stage rice plant seedlings were transplanted thereto. On the day of sowing seeds, the emulsion agent of the compound of the present invention prepared in accordance with Formulation Example 2 was diluted with water so as to be a predetermined herbicide amount and the diluted emulsion agent was applied to the surface of the water. The pot was placed in a greenhouse of 25° C. to 30° C. to grow plant. 3 weeks later from the herbicide application, the effect to each plant was investigated in accordance with the following criteria.
(§7) 5 Herbicidal ratio of 90% or more (almost completely withered)
(§8) 4 Herbicidal ratio of 70% or higher and lower than 90%
(§9) 3 Herbicidal ratio of 40% or higher and lower than 70%
(§10) 2 Herbicidal ratio of 20% or higher and lower than 40%
(§11) 1 Herbicidal ratio of 5% or higher and lower than 20%
(§12) 0 Herbicidal ratio of 5% or lower (almost no effect)

Scirpus juncoides [5] = test: Test Example 1: herbicidal activity, application before weed generation in submerged conditions (symbol B); settings: application herbicide amount 320 g/ha
Source text: as §5, §6, §7, §8, §9, §10, §11, §12

transplanted rice plant = test: Test Example 1: effect on crop, application before weed generation in submerged conditions (symbol a); settings: application herbicide amount 320 g/ha
Method: as §5
as §6, with “On the day of sowing seeds, the emulsion agent of the compound of the present invention prepared in accordance with Formulation Example 2 was diluted with water so as to be a predetermined herbicide amount and the diluted emulsion agent was applied to the surface of the water.” left out
as §7, §8, §9, §10, §11, §12

[6] = test system: Echinochloa oryzacola Vasing.; test: Test Example 2: herbicidal activity, application during weed generation in submerged conditions (symbol A); settings: Table 23; application herbicide amount 320 g/ha; grade 0-5 by criteria of Test Example 1
Method: (§13) Herbicidal Activity Test by Application During Weed Generation in Submerged Conditions
as §6, with “the pot was placed in the greenhouse of 25° C. to 30° C. to grow the plants. When Echinochloa oryzacola Vasing., Scirpus juncoides, and Monochoria vaginalis were grown to one” for “thereafter 2.5”, “to two leaf stage,” for “rice plant seedlings were transplanted thereto. On the day of sowing seeds,”, “water.” for “water. The pot was placed in a greenhouse of 25° C. to 30° C. to grow plant.”, “criteria of Test Example 1.” for “following criteria.”

Scirpus juncoides [7] = test: Test Example 2: herbicidal activity, application during weed generation in submerged conditions (symbol B); settings: Table 23; application herbicide amount 320 g/ha; grade 0-5 by criteria of Test Example 1
Method: as §13
as §6, with “the pot was placed in the greenhouse of 25° C. to 30° C. to grow the plants. When Echinochloa oryzacola Vasing., Scirpus juncoides, and Monochoria vaginalis were grown to one” for “thereafter 2.5”, “to two leaf stage,” for “rice plant seedlings were transplanted thereto. On the day of sowing seeds,”, “water.” for “water. The pot was placed in a greenhouse of 25° C. to 30° C. to grow plant.”, “criteria of Test Example 1.” for “following criteria.”

Monochoria vaginalis = test: Test Example 2: herbicidal activity, application during weed generation in submerged conditions (symbol C); settings: Table 23; application herbicide amount 320 g/ha; grade 0-5 by criteria of Test Example 1
Method: as §13
as §6, with “the pot was placed in the greenhouse of 25° C. to 30° C. to grow the plants. When Echinochloa oryzacola Vasing., Scirpus juncoides, and Monochoria vaginalis were grown to one” for “thereafter 2.5”, “to two leaf stage,” for “rice plant seedlings were transplanted thereto. On the day of sowing seeds,”, “water.” for “water. The pot was placed in a greenhouse of 25° C. to 30° C. to grow plant.”, “criteria of Test Example 1.” for “following criteria.”

In the case of CON=C(C)CC1CC(O)=C(c2c(C)cc(NC(=O)OC(C)(C)C)cc2C)C1=O (mixture of isomers) [6-033], the “herbicidal effect on H (Echinochloa crus-galli var. crus-galli), grade 0-5” value [1] is reported as 0 (Herbicidal ratio of 5% or lower (almost no effect)), the “herbicidal effect on D (Leptochloa chinensis), grade 0-5” value (Leptochloa chinensis) is reported as 0 (Herbicidal ratio of 5% or lower (almost no effect)) and the “herbicidal effect on E, grade 0-5” value (Cyperus difformis) is reported as 3 (Herbicidal ratio of 40% or higher and lower than 70%). For the same compound, the “effect on crop b (directly sowed rice plant), grade 0-5” value [2] was 0 (Herbicidal ratio of 5% or lower (almost no effect)), the “F: Digitaria ciliaris, herbicidal effect grade” value (Digitaria ciliaris) was 0 (Herbicidal ratio of 5% or lower (almost no effect)) and the “G: Setaria viridis, herbicidal effect grade” value (Setaria viridis) was 0 (Herbicidal ratio of 5% or lower (almost no effect)). The “H: Echinochloa crus-galli var. crus-galli, herbicidal effect grade” value [3] was 1 (Herbicidal ratio of 5% or higher and lower than 20%), the “I: Avena fatua, herbicidal effect grade” value (Avena fatua) was 3 (Herbicidal ratio of 40% or higher and lower than 70%) and the “J: Alopecurus myosuroides, herbicidal effect grade” value (Alopecurus myosuroides) was 0 (Herbicidal ratio of 5% or lower (almost no effect)). The “L: Apera spica-venti, herbicidal effect grade” value (Apera spica-venti) was 0 (Herbicidal ratio of 5% or lower (almost no effect)), the “M: Abutilon theophrasti, herbicidal effect grade” value (Abutilon theophrasti) was 0 (Herbicidal ratio of 5% or lower (almost no effect)) and the “N: Amaranthus retroflexus, herbicidal effect grade” value (Amaranthus retroflexus) was 0 (Herbicidal ratio of 5% or lower (almost no effect)). The “O: Chenopodium album, herbicidal effect grade” value (Chenopodium album) was 0 (Herbicidal ratio of 5% or lower (almost no effect)), the “P: Stellaria media, herbicidal effect grade” value (Stellaria media) was 0 (Herbicidal ratio of 5% or lower (almost no effect)) and the “R: Veronica persica, herbicidal effect grade” value (Veronica persica) was 0 (Herbicidal ratio of 5% or lower (almost no effect)). The “c: corn, effect on crop grade” value (corn) was 3 (Herbicidal ratio of 40% or higher and lower than 70%), the “d: soybean, effect on crop grade” value (soybean) was 0 (Herbicidal ratio of 5% or lower (almost no effect)) and the “b: directly sowed rice plant, effect on crop grade” value (rice plant) was 3 (Herbicidal ratio of 40% or higher and lower than 70%). For the same compound, the “e: wheat, effect on crop grade” value (wheat) was 0 (Herbicidal ratio of 5% or lower (almost no effect)), the “f: beet, effect on crop grade” value (beet) was 0 (Herbicidal ratio of 5% or lower (almost no effect)) and the “g: rapeseed, effect on crop grade” value (rapeseed) was 1 (Herbicidal ratio of 5% or higher and lower than 20%).
CON=C(C)CC1CC(O)=C(c2c(C)cc(SC)cc2C)C1=O (stereo not shown) [6-024] was tested, and the “Herbicidal effect grade, A: Echinochloa oryzacola Vasing.” value [4] was 3 (Herbicidal ratio of 40% or higher and lower than 70%), the “Herbicidal effect grade, B: Scirpus juncoides” value (Scirpus juncoides [5]) was 2 (Herbicidal ratio of 20% or higher and lower than 40%) and the “Effect grade on crop, a: transplanted rice plant” value (transplanted rice plant) was 3 (Herbicidal ratio of 40% or higher and lower than 70%). The “Herbicidal effect grade, A: Echinochloa oryzacola Vasing.” value [6] was 1 (Herbicidal ratio of 5% or higher and lower than 20%), the “Herbicidal effect grade, B: Scirpus juncoides” value (Scirpus juncoides [7]) was 0 (Herbicidal ratio of 5% or lower (almost no effect)) and the “Herbicidal effect grade, C: Monochoria vaginalis” value (Monochoria vaginalis) was 0 (Herbicidal ratio of 5% or lower (almost no effect)). The “herbicidal effect on H (Echinochloa crus-galli var. crus-galli), grade 0-5” value [1] was 3 (Herbicidal ratio of 40% or higher and lower than 70%), the “herbicidal effect on D (Leptochloa chinensis), grade 0-5” value (Leptochloa chinensis) was 2 (Herbicidal ratio of 20% or higher and lower than 40%) and the “herbicidal effect on E, grade 0-5” value (Cyperus difformis) was 3 (Herbicidal ratio of 40% or higher and lower than 70%). For the same compound, the “effect on crop b (directly sowed rice plant), grade 0-5” value [2] was 3 (Herbicidal ratio of 40% or higher and lower than 70%).
